Measured values reported in patent US5576339A, “Pyridyl substituted cyclopentadienes for the treatment of inflamation” (priority 1995, dated 1996).

Assays:
[1] = test system: COX II enzyme; settings: in words, literature; cited from earlier work
[2] = target: COX II; assay: Assay for COX II activity (PGE2 ELISA, recombinant enzyme); format: biochemical, human or murine; settings: arachidonic acid (10 μM), pre-incubated 10-20 minutes, pH 8.0; read-out: COX II ID50
Experimental: (§1) A 2.0 kb fragment containing the coding region of either human or murine COX-I or human or murine COX-II was cloned into a BamH1 site of the baculovirus transfer vector pVL1393 (Invitrogen) to generate the baculovirus transfer vectors for COX-I and COX-II in a manner similar to the method of D. R. O'Reilly et al (Baculovirus Expression Vectors: A Laboratory Manual (1992)). Recombinant baculoviruses were isolated by transfecting 4 μg of baculovirus transfer vector DNA into SF9 insect cells (2×10e8) along with 200 ng of linearized baculovirus plasmid DNA by the calcium phosphate method. See M. D. Summers and G. E. Smith, A Manual of Methods for Baculovirus Vectors and Insect Cell Culture Procedures. Texas Agric. Exp. Station Bull. 1555 (1987). Recombinant viruses were purified by three rounds of plaque purification and high titer (10E7-10E8 pfu/ml) stocks of virus were prepared. For large scale production, SF9 insect cells were infected in 10 liter fermentors (0.5×10^6 /ml) with the recombinant baculovirus stock such that the multiplicity of infection was 0.1. […]
(§2) COX activity was assayed as PGE2 formed/μg protein/time using an ELISA to detect the prostaglandin released. […] The PGE2 formed was measured by standard ELISA technology (Cayman Chemical).

[3] = target: COX I; assay: Assay for COX I activity (PGE2 ELISA, recombinant enzyme); format: biochemical, human or murine; settings: arachidonic acid (10 μM), pre-incubated 10-20 minutes, pH 8.0; read-out: COX I ID50
Experimental: as §1, §2

Row | IC50 [2] [µM] | IC50 [3] [µM] | Compound | inhibition of the COX II enzyme [1]
1 |  |  | COc1ccc2cc(CC(=O)O)ccc2c1 [6-methoxy-2-napthylacetic acid] | selectively inhibit the COX II enzyme
2 | 0.05 | 3.68 | CC1(C)C=C(c2ccc(F)cc2)C(c2ccc(S(C)(=O)=O)cc2)=C1 [Example 1, 1-Methylsulfonyl-4-[1,1-dimethyl-4-(4-fluorophenyl)cyclopenta-2,4-dien-3-yl]benzene] | 
3 |  |  | CS(=O)(=O)Nc1ccc([N+](=O)[O-])cc1OC1CCCCC1 [N-(2-cyclohexyloxy-4-nitrophenyl)methanesulfonamide] | inhibits the COX II enzyme
